Results published in PubChem BioAssay (NCI).
Several values for one entry are separate records, joined by “and”; a condition that tells them apart may be missing. Equal entries are not always repeated.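 All cell lines were grown in 96-well plates and treated with compound for 48 hours. Here, GI50 denotes the concentration required for 50% inhibition of growth. The concentration for full growth arrest is given as TGI.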

Legend:
Experiment in all cases: growth of human tumour cells (NCI), 48 h
UACC-62 melanoma = test system: UACC-62 melanoma
MOLT-4 leukemia = test system: MOLT-4 leukemia
PC-3 prostate = test system: PC-3 prostate
KM12 colon = test system: KM12 colon
M14 melanoma = test system: M14 melanoma
SF-268 CNS = test system: SF-268 CNS
LOX IMVI melanoma = test system: LOX IMVI melanoma
HOP-62 NSCLC = test system: HOP-62 NSCLC
SW-620 colon = test system: SW-620 colon
HCT-116 colon = test system: HCT-116 colon

Row | SMILES | TGI (UACC-62 melanoma) | TGI (MOLT-4 leukemia) [µM] | TGI (PC-3 prostate) | TGI (KM12 colon) | TGI (M14 melanoma) | TGI (SF-268 CNS) | TGI (LOX IMVI melanoma) | TGI (HOP-62 NSCLC) | TGI (SW-620 colon) | TGI (HCT-116 colon) | GI50 (UACC-62 melanoma) | GI50 (MOLT-4 leukemia) [µM] | GI50 (PC-3 prostate) | GI50 (KM12 colon) | GI50 (M14 melanoma) | GI50 (SF-268 CNS) | GI50 (LOX IMVI melanoma) [µM] | GI50 (HOP-62 NSCLC) | GI50 (SW-620 colon) | GI50 (HCT-116 colon) [µM]
1 | C=CCSS/C=C/CS(=O)CC=C (centres undefined) | > 82.7 µM | > 29.5 | > 100 µM | > 100 µM | 44.1 µM | 60.7 µM | 29.9 µM | > 100 µM | 22.7 µM | 27.3 µM |  |  |  |  |  |  |  |  |  | 
2 | Cc1cc(N/N=C/c2nc(-c3ccc(Br)cc3)oc2C)c2cc(Br)ccc2n1 | 4.58 µM | > 100 | 8.75 µM | 5.71 µM | 13.8 µM | 46.2 µM | 4.3 µM | 5.84 µM | 4.81 µM | 12.2 µM | 1.91 µM | 2.65 | 2.68 µM | 2.25 µM | 3.58 µM | 6.89 µM | 1.99 | 2.32 µM | 2.04 µM | 3.52
3 | Nc1nc(SN=Nc2ccc(S(N)(=O)=O)cc2)c2[nH]cnc2n1 | 5.62 µM | 6.93 | > 100 µM | 20 µM | 9 µM | > 100 µM | 12.6 µM | > 100 µM | > 100 µM | 15.1 µM | 0.379 µM | 0.32 | 1.64 µM | 1.64 µM | 0.393 µM | 0.563 µM | 0.219 | 0.62 µM | 0.659 µM | 0.374
4 | CCc1ccccc1NC(=O)c1sc2nc3c(cc2c1N)C(=O)CCC3 | > 100 µM | > 100 | > 100 µM | > 100 µM | > 100 µM | > 100 µM | > 100 µM | > 68.5 µM | > 100 µM | > 100 µM | 0.439 µM | 5.29 | 0.461 µM | 0.432 µM | 0.404 µM | 11.9 µM | 0.669 | 0.587 µM | 0.329 µM | 0.512
5 | COc1cccc(/C(COc2ccc3c(c2)oc(=O)c2cc(OC)ccc23)=N/O)c1 | > 100 µM | > 100 | > 100 µM | > 100 µM | > 100 µM | > 100 µM | > 100 µM | > 100 µM | > 100 µM | > 100 µM | 4.25 µM | 5.61 | 6.29 µM | 3.86 µM | 3.62 µM | 9.58 µM | 7.14 | 6.9 µM | 3.9 µM | 4.27
6 | [Au+].[Au+].[Au+].[c-]1nccn1Cc1ccccc1.[c-]1nccn1Cc1ccccc1.[c-]1nccn1Cc1ccccc1 | 21.4 µM | > 100 | 34.4 µM | 39.9 µM | 6.68 µM | 15.3 µM | 3.08 µM | 28.5 µM | > 19.7 µM | 18.6 µM | 5.23 µM | 7.96 | 17.4 µM | 7.75 µM | 2.75 µM | 3.35 µM | 1.56 | 5.99 µM | 7.78 µM | 6.68
7 | N#C/C(=C/N1CCN(C(=O)c2ccco2)C1=S)C(=O)c1ccccc1 | 30.3 µM | > 100 | > 100 µM | > 100 µM | 36.8 µM | 93.3 µM | > 100 µM | 47 µM | 38.3 µM | 57 µM | 12.9 µM | 43.7 | 31.7 µM | 6.49 µM | 14.9 µM | 31.2 µM | 17.9 | 22 µM | 5.94 µM | 9.12
8 | CCC(C)(C)c1ccc(OCCCCCCN2CCNCC2)cc1 | 3.52 µM | 5.11 | 13.8 µM | 3.5 µM | 4.17 µM | 14 µM | 3.21 µM | 6.09 µM | 3.97 µM | 3.12 µM | 1.76 µM | 2.03 | 2.6 µM | 1.88 µM | 1.92 µM | 3.78 µM | 1.76 | 2.32 µM | 1.95 µM | 1.7
9 | CCn1c(CO)nn(-c2cc(O[C@@H](C)C(F)(F)F)c(C(=O)Nc3c(F)cccc3Cl)cc2F)c1=O | > 100 µM | > 100 | > 100 µM | > 100 µM | > 100 µM | > 100 µM |  | > 100 µM | > 100 µM | > 100 µM | < 0.0217 µM | < 0.01 | < 0.01 µM | < 0.01 µM | < 0.0144 µM | 0.196 µM | < 0.01 | < 0.0255 µM | < 0.01 µM | < 0.01
10 | O=[N+]([O-])c1ccc2c(c1)C(c1ccccc1Cl)=Nc1cn[nH]c1N2 | > 25 µM | > 25 | > 25 µM | > 25 µM | > 25 µM | > 25 µM | > 25 µM | > 25 µM | > 25 µM | > 25 µM | 16 µM | 10.5 | 14.3 µM | 12.1 µM | > 25 µM | > 23.9 µM | 18.1 | > 20.7 µM | 15.8 µM | 11.2
11 | Cc1cc[c-]cc1.Fc1c[c-]c(-c2ccccn2)c(F)c1.[Pt+2].c1ccc(P(C[PH+](c2ccccc2)c2ccccc2)c2ccccc2)cc1 | 9.31 µM | 12.2 | 11.7 µM | 9.23 µM | 13.7 µM | 13.5 µM | 6.24 µM | 10.7 µM | 12.4 µM | 11.2 µM | 2.04 µM | 3.35 | 1.76 µM | 2.4 µM | 2.91 µM | 2.9 µM | 2.19 | 2.84 µM | 2.83 µM | 2.65
12 | O=C(/C=C/c1cc(CN2CCOCC2)c(O)c2ncccc12)c1cc(CN2CCOCC2)c(O)c2ncccc12 |  | > 100 | > 100 µM | > 100 µM | > 64.2 µM | > 100 µM | > 100 µM | > 39 µM | > 100 µM | > 100 µM | 0.0457 µM | 0.0529 | 0.05 µM | 0.0437 µM | 0.0506 µM | 0.0469 µM | 0.0394 | 0.0335 µM | < 0.0186 µM | 0.0245
13 | Cc1cc(S(=O)(=O)N/N=C(\Sc2cc(Cl)c(C)cc2S(N)(=O)=O)c2ccc(Cl)cc2)c(Cl)cc1Cl | > 100 µM | > 100 | > 100 µM | > 100 µM | > 100 µM | > 100 µM | 99.6 µM | > 100 µM | > 100 µM | > 100 µM | > 100 µM | 48.3 | 86.4 µM | > 100 µM | > 100 µM | > 100 µM | 30.8 | > 100 µM | 40.4 µM | 79.4
14 | CC(C)S(=O)(=O)c1ccccc1Nc1nc(Nc2cccc(NC(=O)CN)c2)ncc1Cl | 1.83 µM | 2.14 | 5.9 µM | 2.45 µM | 1.49 µM | 1.3 µM | 0.258 µM | 6.13 µM | 4.09 µM | 0.696 µM | 0.164 µM | 0.231 | 0.308 µM | 0.0331 µM | 0.189 µM | 0.189 µM | 0.0384 | 0.112 µM | 0.0394 µM | 0.0403
15 | C[C@]12CC[C@H](O)C[C@H]1CC[C@@H]1[C@@H]2CC[C@]2(C)[C@@H](C3=CC(=O)OC3)CC[C@]12O | 1.09 µM | 0.0537 | 3.7 µM | 3.27 µM | 1.6 µM | 0.226 µM | 0.533 µM | 0.169 µM | 1.57 µM | 0.0663 µM | 0.32 µM |  | 0.178 µM |  |  |  |  | 0.0313 µM |  | 
16 | COCCOc1cnc2ccn([C@H](C)c3nnc4c(F)cc(-c5cnn(C)c5)cn34)c(=O)c2c1 | > 100 µM | > 100 | > 100 µM | > 100 µM | > 100 µM | > 100 µM | > 100 µM | > 100 µM | > 100 µM | > 100 µM | 56.4 µM | > 100 | > 100 µM | 24.4 µM | > 100 µM | > 100 µM | > 100 | > 100 µM | > 100 µM | > 100
17 | COc1ccc(C(=O)COc2cccc(/C=C3\Oc4ccc5ccccc5c4C3=O)c2)cc1 | 22.5 µM | 21.6 | 3.23 µM | 14.6 µM | 18.1 µM | 14 µM | 3.08 µM | 28.1 µM | 3.77 µM | 4.94 µM | 10.7 µM | 2.85 | 1.54 µM | 3.39 µM | 4.8 µM | 3.72 µM | 1.56 | 14.9 µM | 1.87 µM | 2.31
18 | COc1cc2c(c(OC)n1)[C@]1(O)[C@H](O)[C@H](CN(C)C)[C@@H](c3ccccc3)[C@]1(c1ccc(C#N)cc1)O2 | 2.63 µM and 4.34 µM |  | 10.7 µM and 2.39 µM | 3.61 µM and 7.59 µM | 0.193 µM and 0.114 µM | 2.02 µM and 1.85 µM | 0.0153 µM and 0.0133 µM | 3.52 µM and 0.565 µM | 3.37 µM and 10.4 µM | 2.65 µM and 1.7 µM | 0.0359 µM and 0.0358 µM | < 0.01 | 0.0223 µM and < 0.0116 µM | 0.0128 µM and < 0.01 µM | 0.0147 µM and 0.0102 µM | 0.0249 µM and 0.0148 µM | < 0.01 | < 0.0151 µM and 0.0102 µM | 0.0124 µM and < 0.01 µM | < 0.01
19 | COc1ccc(OC)c2c(/C=C/c3ccc(N(C)C)cc3)ccnc12 | > 10 µM | > 10 | > 10 µM | > 10 µM | > 10 µM | > 10 µM | > 10 µM | > 10 µM | > 10 µM | 8.11 µM |  |  |  |  |  |  |  |  |  | 
20 | COc1cc2c(cc1O)C1Cc3ccc(OC)c(O)c3C(C2)N1C (centres undefined) | > 100 µM | > 100 | > 100 µM | > 100 µM | > 100 µM | > 100 µM | > 100 µM | > 100 µM | > 100 µM | > 100 µM |  |  |  |  |  |  |  |  |  | 
21 | Oc1cn(-c2ccc(Cl)cc2)nc1-c1n[nH]c(=S)n1C1CCCCC1 | > 100 µM | > 29 | > 66.9 µM | 17.5 µM | 38.7 µM | > 100 µM | > 100 µM | > 100 µM | > 100 µM | 39.8 µM |  | 0.5 | 11.4 µM | 1.04 µM | 0.682 µM | 13.7 µM | 0.451 | 1.67 µM | 0.475 µM | 0.612
